Experiments:
Type in all cases: in vivo
Conditions in all cases: 250 g/h, evaluated after 13 days
Setaria faberi (SETFA) [1] = assay: Post-emergence herbicidal glasshouse test, percentage damage
How it was run: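 Percentage damage was scored 13 days after treatment on a five-point scale (1=0-19% to 5=80-100%). Treatments were post-emergence sprays on 8-day-old wheat, barley and SETFA plants in a glasshouse (24/16 °C day/night, 14 h light, 65% humidity), using acetone/water 50:50 with 0.5% Tween 20 at the stated rates. Wheat additionally received cloquintocet-mexyl safener at 50 g/ha.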

[2] = tested on: Alopecurus myosuroides (ALOMY); assay: as above
How it was run: (§1)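 Five-point damage scores (5=80-100%, 1=0-19%) were recorded 13 days after application of 250 g/h. Treatment was pre-emergence (1 day after sowing) or post-emergence (8 days), and plants were kept at 24/16 °C, 14 h light, 65% humidity with twice-daily watering.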

Avena fatua (AVEFA) [3] = assay: as above
How it was run: as §1

[4] = tested on: Echinochloa crus-galli (ECHCG); assay: as above
How it was run: as §1

Lolium perenne (LOLPE) [5] = assay: as above
How it was run: as §1

[6] = tested on: Alopecurus myosuroides (ALOMY); assay: Pre-emergence herbicidal glasshouse test, percentage damage
How it was run: as §1

Avena fatua (AVEFA) [7] = assay: as above
How it was run: as §1

[8] = tested on: Echinochloa crus-galli (ECHCG); assay: as above
How it was run: as §1

Setaria faberi (SETFA) [9] = assay: as above
How it was run: as §1

Lolium perenne (LOLPE) [10] = assay: as above
How it was run: as §1

CC#Cc1cc(C)c(C2C(=O)CC3(CCN(C(=O)COC(F)F)CC3)CC2=O)c(C)c1 [Compound A197, 3-[2-(difluoromethoxy)acetyl]-9-(2,6-dimethyl-4-prop-1-ynyl-phenyl)-3-azaspiro[5.5]undecane-8,10-dione]
5 (5=80-100%): SETFA POST percentage damage (five point scale) (Setaria faberi (SETFA) [1]) | ALOMY POST percentage damage (five point scale) [2] | AVEFA POST percentage damage (five point scale) (Avena fatua (AVEFA) [3]) | ECHCG POST percentage damage (five point scale) [4] | LOLPE POST percentage damage (five point scale) (Lolium perenne (LOLPE) [5]) | ALOMY PRE percentage damage (five point scale) [6] | AVEFA PRE percentage damage (five point scale) (Avena fatua (AVEFA) [7]) | ECHCG PRE percentage damage (five point scale) [8] | SETFA PRE percentage damage (five point scale) (Setaria faberi (SETFA) [9]) | LOLPE PRE percentage damage (five point scale) (Lolium perenne (LOLPE) [10])

CC#Cc1cc(C)c(C2C(=O)CC3(CCN(C(=O)CCC#N)CC3)CC2=O)c(C)c1 [Compound A198, 4-[9-(2,6-dimethyl-4-prop-1-ynyl-phenyl)-8,10-dioxo-3-azaspiro[5.5]undecan-3-yl]-4-oxo-butanenitrile]
4 (4=60-79%): AVEFA PRE percentage damage (five point scale) (Avena fatua (AVEFA) [7])
5 (5=80-100%): SETFA POST percentage damage (five point scale) (Setaria faberi (SETFA) [1]) | ALOMY POST percentage damage (five point scale) [2] | AVEFA POST percentage damage (five point scale) (Avena fatua (AVEFA) [3]) | ECHCG POST percentage damage (five point scale) [4] | LOLPE POST percentage damage (five point scale) (Lolium perenne (LOLPE) [5]) | ALOMY PRE percentage damage (five point scale) [6] | ECHCG PRE percentage damage (five point scale) [8] | SETFA PRE percentage damage (five point scale) (Setaria faberi (SETFA) [9]) | LOLPE PRE percentage damage (five point scale) (Lolium perenne (LOLPE) [10])

CC#Cc1cc(C)c(C2C(=O)CC3(CCN(C(=O)COC(F)(F)F)CC3)CC2=O)c(C)c1 [Compound A199]
5 (5=80-100%): SETFA POST percentage damage (five point scale) (Setaria faberi (SETFA) [1]) | ALOMY POST percentage damage (five point scale) [2] | AVEFA POST percentage damage (five point scale) (Avena fatua (AVEFA) [3]) | ECHCG POST percentage damage (five point scale) [4] | LOLPE POST percentage damage (five point scale) (Lolium perenne (LOLPE) [5]) | ALOMY PRE percentage damage (five point scale) [6] | AVEFA PRE percentage damage (five point scale) (Avena fatua (AVEFA) [7]) | ECHCG PRE percentage damage (five point scale) [8] | SETFA PRE percentage damage (five point scale) (Setaria faberi (SETFA) [9]) | LOLPE PRE percentage damage (five point scale) (Lolium perenne (LOLPE) [10])

CC#Cc1cc(C)c(C2C(=O)CC3(CCN(C(=O)COCCCl)CC3)CC2=O)c(C)c1 [Compound A200]
5 (5=80-100%): SETFA POST percentage damage (five point scale) (Setaria faberi (SETFA) [1]) | ALOMY POST percentage damage (five point scale) [2] | AVEFA POST percentage damage (five point scale) (Avena fatua (AVEFA) [3]) | ECHCG POST percentage damage (five point scale) [4] | LOLPE POST percentage damage (five point scale) (Lolium perenne (LOLPE) [5]) | ALOMY PRE percentage damage (five point scale) [6] | ECHCG PRE percentage damage (five point scale) [8] | SETFA PRE percentage damage (five point scale) (Setaria faberi (SETFA) [9]) | LOLPE PRE percentage damage (five point scale) (Lolium perenne (LOLPE) [10])
4 (4=60-79%): AVEFA PRE percentage damage (five point scale) (Avena fatua (AVEFA) [7])

C=CCOCC(=O)N1CCC2(CC1)CC(=O)C(c1c(C)cc(C#CC)cc1C)C(=O)C2 [Compound A201]
5 (5=80-100%): SETFA POST percentage damage (five point scale) (Setaria faberi (SETFA) [1]) | ALOMY POST percentage damage (five point scale) [2] | AVEFA POST percentage damage (five point scale) (Avena fatua (AVEFA) [3]) | ECHCG POST percentage damage (five point scale) [4] | LOLPE POST percentage damage (five point scale) (Lolium perenne (LOLPE) [5]) | ALOMY PRE percentage damage (five point scale) [6] | ECHCG PRE percentage damage (five point scale) [8] | SETFA PRE percentage damage (five point scale) (Setaria faberi (SETFA) [9]) | LOLPE PRE percentage damage (five point scale) (Lolium perenne (LOLPE) [10])
4 (4=60-79%): AVEFA PRE percentage damage (five point scale) (Avena fatua (AVEFA) [7])

Reference: US12043599B2, “Herbicidal compounds” (SYNGENTA PARTICIPATIONS AG, priority 2018, dated 2024)
